Experimental data: US5880145A, “Class of benzoporphyrin derivative photoactive compounds” (The University of British Columbia, priority 1997, dated 1999)
Like-named read-outs stand apart in the source and are kept apart here.

Key:
[1] = test system: Murine leukemia cells (L1210); assay: Photosensitization of cells in vitro (broad spectrum light 9 j/cm^2; MTT cell viability); type: cell-based; settings: for IC50: Mus musculus, L1210, light or radiation study, 20 h, 1 hour incubation, light 9 j/cm^2, viability 20 hours later, read-out: LD50 (dose causing 50% cell kill)
Procedure: Murine leukemia cells (L1210) were incubated in suitable buffer with and without serum in various amounts of the drug B3 for 1 hour. After removal of the drug, the cells were exposed to broad spectrum light at 9 j/cm^2. Cell viability was determined 20 hours later by the MTT colorimetric assay. Results are presented in FIGS. 2A and 2B as % cell kill for cells exposed to light only.

[2] = Tissue distribution and clearance in vivo; settings: mice, intravenous 4 mg/kg
Procedure: Mice (normal, healthy and M1-tumor-bearing) were injected intravenously at 4 mg/kg with B3 formulated in aqueous solution containing DMSO. At various times post B3 administration, the animals were sacrificed and B3 content in various tissues was determined in tissue extracts by fluorescence as described above.

L1210 cells [3] = assay: Release/retention of B3 by cells in vitro; type: cell-based, Murine; settings: after 1 hour incubation at 3 μg/ml; drug-free medium with 10% serum
Procedure: Release/retention of B3 by cells in vitro: L1210 cells were incubated for 1 hour with B3 at 3 μg/ml in the presence of 10% serum, then washed and placed in drug-free medium containing 10% serum. At various times duplicate aliquots were evaluated for cell content of B3 as described above.

L1210 cells [4] = assay: Uptake of B3 by cells in vitro; type: cell-based, Murine; settings: 3 μg/ml, 10% serum
Procedure: Uptake of B3 by cells in vitro: L1210 cells (5×10^6 /vial) were incubated in the presence of 10% serum with B3 at 3 μg/ml for times up to 100 minutes. At various times during incubation, duplicate vials were pulled out and the cells, following washing, were lysed and the amount of B3 in the extract determined by fluorescence in the presence of 1% Triton X-100.

[5] = test system: M1 (rhabdomyosarcoma) tumor-bearing mice; assay: Selectivity in vivo: biodistribution (tumor:tissue ratios)
Procedure: Mice (normal, healthy and M1-tumor-bearing) were injected intravenously at 4 mg/kg with B3 formulated in aqueous solution containing DMSO. At various times post B3 administration, the animals were sacrificed and B3 content in various tissues was determined in tissue extracts by fluorescence as described above. Biodistribution data of B3 (tumor:tissue ratios) obtained in M1 (rhabdomyosarcoma) tumor-bearing mice were also evaluated at various times. Within the first hour post intravenous administration of 4 mg/kg B3, tumor:tissue ratios for the muscle and skin were 1.5-2.0 and 3.1-3.9, respectively. Lymph nodes gave ratios of 0.7. […] Since this preferential accumulation was observed shortly after B3 administration, this photosensitizer can be activated with light shortly after its injection, which is convenient in clinical use.

[6] = within first hour post intravenous 4 mg/kg

Question: Which results are given for `C=Cc1c(C)c2cc3nc(cc4[nH]c(cc5nc(cc1[nH]2)[C@@]1(C)C5=CC=C(C(=O)O)[C@H]1C(=O)OC)c(C)c4CCC(=O)OC)C(CCC(=O)OC)=C3C` (relative stereo) [Example B3]?
Answer: IC50 ([1]; in the absence of 10% serum): 0.007 µg/mL; IC50 ([1]; in the presence of 10% serum): 0.035 µg/mL; photosensitization of cells (in words) ([1]; with and without serum): very potent photosensitizer of cells and maintains this property in the presence of serum; pharmacokinetics in vivo (in words) [2]: very rapid pharmacokinetics in vivo; time after which drug was cleared from tissues tested ([2]; aqueous solution containing DMSO): about 5 minutes; time after which release from cells is rapid and almost complete (L1210 cells [3]): ~30 min; time to reach maximum concentrations in cells (uptake) (L1210 cells [4]): ≤ 20 min; cellular pharmacokinetics in vitro (in words) (L1210 cells [4]; uptake and release, L1210 cells): very rapid pharmacokinetics in vitro; accumulation in tumor and other rapidly proliferating tissues versus normal tissues (in words) ([5]; shortly after intravenous 4 mg/kg): preferential accumulation of B3 in tumor and other rapidly proliferating tissues (lymph nodes) in contrast to normal, nonproliferating tissues; tumor:tissue ratio, lymph nodes [5, 6]: 0.7; tumor:tissue ratio, muscle [5, 6]: 1.5-2.0; tumor:tissue ratio, skin [5, 6]: 3.1-3.9
